# Assays:
# Type in all cases: in vivo
# [1] = system: Musca domestica Linnaeus adult houseflies; assay: Needle inoculum (direct application) on adult flies
# Protocol: (§1) The Solution may be poured into a container having a spray nozzle or provided in an aerosol container. Alternatively, the Solution may be poured into an open container for direct contact. The Solution may be poured directly onto pupa or sprayed. Several experiments were performed on Musca domestica Linnaeus adult houseflies, pupa, and larva using varying dilutions, concentrations, and combinations of components, along with a dihydrogen monoxide control to compare the effectiveness and potency of each composition for quickly killing adult flies, pupa, and larva. […] During experimentation, a needle inoculum (syringe) having a modified composition for adult flies, a spray inoculum having the modified composition for adult flies, and a dihydrogen monoxide control for adult flies were conducted. References to “needle inoculum” refers to directly applying the modified composition to the adult flies.
# [2] = system: Musca domestica Linnaeus house fly; assay: Fly killing, general statements (application not specified); conditions: for independent house fly adulticidal properties of the individual component: individual formula component
# Description: The concentrations, formulas, and composition noted herein have been evaluated and tested for optimal effect against adult houseflies and pupa. Altering the preferred concentrations would decrease the effectiveness of the inventive Solution, leading to longer a time period before the flies and/or pupa are killed. The Solution may be poured into a container having a spray nozzle or provided in an aerosol container. Alternatively, the Solution may be poured into an open container for direct contact. The Solution may be poured directly onto pupa or sprayed. Several experiments were performed on Musca domestica Linnaeus adult houseflies, pupa, and larva using varying dilutions, concentrations, and combinations of components, along with a dihydrogen monoxide control to compare the effectiveness and potency of each composition for quickly killing adult flies, pupa, and larva. […] These minimal moments of delay between contact and expiration prevents the fly from falling and immediately dying in an undesired location, for example, on a food surface. […] The user can either wait for the fly to die solely from the spray, or, alternatively, the user can implement using the spray as one of the first steps for disabling the fly before immediately killing the fly with either more application of the sprayable composition or with another aid, for example, a fly swatter.
# The invention, when sprayed on fly pupa, prevents the pupa from hatching. The preferred type of fly and fly pupa that are effectively killed by this Solution are Musca domestica Linnaeus houseflies. Because the composition (or Solution) is nontoxic, nonabrasive, and ingestible for humans, the Solution can be sprayed or applied directly to a surface, including food. Various experiments were conducted to evaluate the efficacy of each component used in the Solution.
# [3] = system: Musca domestica Linnaeus adult houseflies; assay: Spray inoculum on adult flies; conditions: 75° F.
# Protocol: as §1
# [4] = FIG. 30, 50% dilution, same temperature (75° F.)
# [5] = FIG. 30, needle inoculum as printed, 0% dilution of 10 mg/mL, 75° F.
# [6] = needle inoculum, 0% (no) dilution, 75° F., time in E2/E3
# [7] = needle inoculum, 50% dilution with water, 75° F.
# [8] = needle inoculum, 50% dilution with water, 75° F., time in E5/E6
# [9] = needle inoculum, 75% dilution with water, 75° F.
# [10] = needle inoculum, 90% dilution with water, 75° F.
# [11] = 50% dilution with water, time in E36/E37
# [12] = printed 50% dilution, in the figure of the 75% dilution experiment
# [13] = needle inoculum, 75% dilution with water, 75° F., 30 minutes
# [14] = needle inoculum, 90% dilution with water, 75° F., 30 minutes
# [15] = 90% dilution with water, 30 minutes
# [16] = needle inoculum, no (0%) dilution, 75° F.
structure (smiles),measurement,setting,value
CCCCC(CC)COC(=O)CC(C(=O)OCC(CC)CCCC)S(=O)(=O)[O-].[Na+] (centres unmarked) [dioctyl sodium sulfosuccinate],deaths of adult flies,[1]; [4],10 out of 10
same,time within which the deaths occurred,[1]; [4],≤ 46 s
same,deaths of adult flies,"[1]; FIG. 30, 90% dilution",10 out of 10
same,time within which the deaths occurred,"[1]; FIG. 30, 90% dilution",≤ 188 s
same,deaths of adult flies,[1]; [5],10 out of 10
same,time within which the deaths occurred,[1]; [5],≤ 36 s
same,time within which flies are immobilized and collapse,[2]; flies,30 to 60 s
"CCCCC(CC)COC(=O)CC(C(=O)OCC(CC)CCCC)S(=O)(=O)[O-].[Na+] (centres unmarked) [docusate, docusate sodium]",deaths of adult flies,[1]; [6],10 out of 10
same,time within which the deaths occurred,"[1]; needle inoculum, 0% dilution, 75° F.",≤ 48 s
same,time within which the deaths occurred,[1]; [7],≤ 56 s
same,deaths of adult flies,[1]; [8],10 out of 10
same,time within which the deaths occurred,[1]; [9],≤ 126 s
same,deaths of adult flies,"[1]; needle inoculum, 75% dilution with water, 75° F., time in E8/E9",10 out of 10
same,time within which the deaths occurred,[1]; [10],≤ 121 s
same,deaths of adult flies,"[1]; needle inoculum, 90% dilution with water, 75° F., time in E11",10 out of 10
same,deaths of adult flies,"[1]; needle inoculum, 95% dilution with water, 75° F., time in E13",10 out of 10
same,deaths of adult flies,"[1]; needle inoculum, 99% dilution with water, 75° F., time in E15",10 out of 10
same,independent house fly adulticidal properties of the individual component,[2],exhibit varying house fly adulticidal properties
same,time within which the deaths occurred,[3]; 50% dilution with water,≤ 43 s
same,deaths of adult flies,[3]; [11],10 out of 10
same,time within which the deaths occurred,[3]; 90% dilution with water,≤ 143 s
same,deaths of adult flies,"[3]; 90% dilution with water, time in E42/E43",10 out of 10
same,deaths of adult flies,"[3]; 95% dilution with water, time in E45",10 out of 10
same,deaths of adult flies,"[3]; 99% dilution with water, time in E47",10 out of 10
same,time within which the deaths occurred,[3]; no dilution,≤ 68 s
same,deaths of adult flies,"[3]; no dilution, time in E33/E34",10 out of 10
same,time within which the deaths occurred,[3]; [12],≤ 89 s
same,deaths of adult flies,"[3]; printed 50% dilution, in the figure of the 75% dilution experiment, time in E39/E40",10 out of 10
CCO [ethyl alcohol],deaths of adult flies,[1]; [6],10 out of 10
same,flight ability during the observation time,[1]; [7],incapable of flight
same,deaths of adult flies,[1]; [8],10 out of 10
same,flight ability during the observation time,[1]; [13],incapable of flight
same,deaths of adult flies within 30 minutes,[1]; [9],1 out of 10
same,flight ability during the observation time,[1]; [14],incapable of flight
same,deaths of adult flies within 30 minutes,[1]; [10],0 out of 10
same,deaths of adult flies,[3]; [11],10 out of 10
same,flight ability during the observation time,"[3]; 75% dilution with water, 30 minutes",incapable of flight
same,deaths of adult flies within 30 minutes,[3]; 75% dilution with water,4 out of 10
same,flight ability during the observation time,[3]; [15],incapable of flight
same,deaths of adult flies within 30 minutes,[3]; 90% dilution with water,1 out of 10
same,flight ability during the observation time,[3]; no dilution,incapable of flight
same,deaths of adult flies,"[3]; no dilution, time in E33/E34",10 out of 10
OCC(O)CO [glycerin],flight ability during the observation time,[1]; [7],incapable of flight
same,deaths of adult flies within 30 minutes,[1]; [7],5 out of 10
same,flight ability during the observation time,[1]; [13],incapable of flight
same,deaths of adult flies within 30 minutes,[1]; [9],4 out of 10
same,flight ability during the observation time,[1]; [14],incapable of flight
same,deaths of adult flies within 30 minutes,[1]; [10],2 out of 10
same,flight ability during the observation time,[1]; [16],incapable of flight
same,deaths of adult flies within 30 minutes,[1]; [16],0 out of 10
same,independent house fly adulticidal properties of the individual component,[2],exhibit varying house fly adulticidal properties
same,flight ability during the observation time,"[3]; 50% dilution, 30 minutes",incapable of flight
same,deaths of adult flies within 30 minutes,[3]; 50% dilution,6 out of 10
same,flight ability during the observation time,[3]; [15],incapable of flight
same,deaths of adult flies within 30 minutes,[3]; 90% dilution with water,7 out of 10
same,flight ability during the observation time,[3]; no dilution,incapable of flight
same,deaths of adult flies within 30 minutes,[3]; no dilution,0 out of 10
same,flight ability during the observation time,"[3]; printed 50% dilution, in the figure of the 75% dilution experiment, 30 minutes",incapable of flight
same,deaths of adult flies within 30 minutes,[3]; [12],6 out of 10

# Source: patent US11058113B1, “Fly and pupa insecticide” (Fly's Water, LLC, priority 2018, dated 2021)
